Assay [1] deals with 3T3-L1. The assay can be described thus: Anti-adipogenic activity against mouse 3T3-L1 cells assessed as decrease in triglyceride level at 1 uM by Oil Red O staining based spectroscopic analysis. Set-up: scale not given: the % may be the effect or the level left. Type of assay: functional.
Assay [2] relates to 3T3-L1. The assay can be described thus: Anti-adipogenic activity against mouse 3T3-L1 cells assessed as decrease in triglyceride level incubated for […] by Oil Red O staining based microscopic analysis. Type of assay: functional, cell-based.
Assay [3] concerns the target Regulatory-associated protein of mTOR (Mus musculus) (UniProt Q8K4Q0). The assay is described as follows: Binding affinity to Raptor in mouse 3T3-L1 cells at 1 to 10 uM incubated overnight by pull-down assay. Conditions: dose 1-10 µM.

Active and inactive are the calls of the source. No cut-off for these calls is given here. Where only a bound is given, the exact number is not on record here.

Usually IC50 stands for the concentration that gives 50% inhibition.

Chain of Regulatory-associated protein of mTOR (Mus musculus) (Q8K4Q0 whole entry, looked up): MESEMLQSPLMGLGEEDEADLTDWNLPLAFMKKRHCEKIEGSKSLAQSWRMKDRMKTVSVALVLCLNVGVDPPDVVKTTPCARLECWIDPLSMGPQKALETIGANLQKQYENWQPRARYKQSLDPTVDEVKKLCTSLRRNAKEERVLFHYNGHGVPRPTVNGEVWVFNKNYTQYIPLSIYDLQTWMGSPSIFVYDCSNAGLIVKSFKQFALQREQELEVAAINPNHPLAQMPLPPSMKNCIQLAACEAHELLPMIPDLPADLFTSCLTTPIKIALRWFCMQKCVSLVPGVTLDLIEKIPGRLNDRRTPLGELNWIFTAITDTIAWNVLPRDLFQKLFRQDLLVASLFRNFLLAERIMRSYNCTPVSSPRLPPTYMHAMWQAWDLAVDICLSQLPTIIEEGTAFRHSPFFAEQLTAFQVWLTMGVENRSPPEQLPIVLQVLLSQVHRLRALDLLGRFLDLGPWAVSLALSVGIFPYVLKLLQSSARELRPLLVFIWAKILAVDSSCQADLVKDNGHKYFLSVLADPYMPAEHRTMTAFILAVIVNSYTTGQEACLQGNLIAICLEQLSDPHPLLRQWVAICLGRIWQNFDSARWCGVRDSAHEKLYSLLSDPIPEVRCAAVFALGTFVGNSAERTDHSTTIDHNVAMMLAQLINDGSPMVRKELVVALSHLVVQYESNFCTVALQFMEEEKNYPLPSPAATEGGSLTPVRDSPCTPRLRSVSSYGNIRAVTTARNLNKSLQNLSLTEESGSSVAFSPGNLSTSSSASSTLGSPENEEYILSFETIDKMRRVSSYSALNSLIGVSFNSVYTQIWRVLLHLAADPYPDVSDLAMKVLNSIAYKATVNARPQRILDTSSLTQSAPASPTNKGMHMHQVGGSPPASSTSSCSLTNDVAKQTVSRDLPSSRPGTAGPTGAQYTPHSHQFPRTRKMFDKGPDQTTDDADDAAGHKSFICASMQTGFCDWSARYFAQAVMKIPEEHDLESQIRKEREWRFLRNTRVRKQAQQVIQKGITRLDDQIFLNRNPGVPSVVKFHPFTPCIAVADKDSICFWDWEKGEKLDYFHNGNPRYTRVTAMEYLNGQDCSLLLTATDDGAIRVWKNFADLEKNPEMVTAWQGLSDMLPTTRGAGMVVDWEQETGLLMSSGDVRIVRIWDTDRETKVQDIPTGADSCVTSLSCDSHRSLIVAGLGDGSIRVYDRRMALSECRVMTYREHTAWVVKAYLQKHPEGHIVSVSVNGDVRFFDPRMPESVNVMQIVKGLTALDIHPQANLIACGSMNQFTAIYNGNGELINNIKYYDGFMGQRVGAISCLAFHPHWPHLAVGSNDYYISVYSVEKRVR

With `C=C(C)[C@@]12OC3(c4ccccc4)O[C@@H]1[C@@H]1[C@@H](Cl)[C@@](O)(CO)[C@@H](O)[C@]4(O)C(=O)C(C)=C[C@H]4[C@@]1(O3)[C@H](C)[C@H]2OC(=O)c1ccccc1`, the Activity with 3T3-L1 [1] is recorded as greater than 50%.

Turning to `C=C(C)[C@@]12OC3(c4ccccc4)O[C@@H]1[C@@H]1[C@@H](Cl)[C@@](O)(CO)[C@@H](O)[C@]4(O)C(=O)C(C)=C[C@H]4[C@@]1(O3)[C@H](C)[C@H]2OC(C)=O`, the Activity in the assay on 3T3-L1 [1] is greater than 50%. For the molecule `C=C(C)[C@@]12OC3(c4ccccc4)O[C@@H]1[C@@H]1[C@@H]4O[C@]4(COC(C)=O)[C@@H](O)[C@]4(O)C(=O)C(C)=C[C@H]4[C@@]1(O3)[C@H](C)[C@H]2OC(C)=O`, in the assay on 3T3-L1 [1], the Activity was greater than 50%.

As to `C=C(C)[C@@]12OC3(c4ccccc4)O[C@@H]1[C@@H]1[C@@H]4O[C@]4(CO)[C@@H](O)[C@]4(O)C(=O)C(C)=C[C@H]4[C@@]1(O3)[C@H](C)[C@H]2OC(=O)c1ccccc1`, the Activity in the assay on 3T3-L1 [1] is greater than 50%. Take `C=C(C)[C@@]12OC3(/C=C/C=C/CCCCC)O[C@@H]1[C@@H]1[C@@H]4O[C@]4(COC(C)=O)[C@@H](OC(C)=O)[C@]4(O)C(=O)C(C)=C[C@H]4[C@@]1(O3)[C@H](C)[C@H]2OC(C)=O`: the Activity in the assay with 3T3-L1 [1] is listed as greater than 50%. With `C=C(C)[C@@]12OC3(/C=C/C=C/CCCCC)O[C@@H]1[C@@H]1[C@@H]4O[C@]4(COC(C)=O)[C@@H](O)[C@]4(O)C(=O)C(C)=C[C@H]4[C@@]1(O3)[C@H](C)[C@H]2OC(=O)c1ccccc1`, the Activity with 3T3-L1 [1] is given as greater than 50%. Turning to `C=C(C)[C@@]12OC3(c4ccccc4)O[C@@H]1[C@@H]1[C@H](O)[C@](Cl)(CO)[C@@H](O)[C@]4(O)C(=O)C(C)=C[C@H]4[C@@]1(O3)[C@H](C)[C@H]2OC(=O)c1ccccc1`, the Activity in the assay with 3T3-L1 [1] was greater than 50%. As to `C=C(C)[C@@]12OC3(c4ccccc4)O[C@@H]1[C@@H]1[C@@H]4O[C@]4(CO)[C@@H](O)[C@]4(O)C(=O)[C@@H](C)C[C@H]4[C@@]1(O3)[C@H](C)[C@H]2OC(=O)c1ccccc1`, the Activity in the assay on 3T3-L1 [1] is on record as greater than 50%. In the case of `C=C(C)[C@@]12OC3(/C=C/C=C/CCCCC)O[C@@H]1[C@@H]1[C@@H]4O[C@]4(COC(C)=O)[C@@H](OC(C)=O)[C@]4(O)C(=O)C(C)=C[C@H]4[C@@]1(O3)[C@H](C)[C@H]2OC(=O)c1ccccc1`, the Activity in the assay with 3T3-L1 [1] was greater than 50%. For the molecule `C=C(C)[C@@]12OC3(/C=C/C=C/CCCCC)O[C@@H]1[C@@H]1[C@@H]4O[C@]4(CO)[C@@H](O)[C@]4(O)C(=O)C(C)=C[C@H]4[C@@]1(O3)[C@H](C)[C@H]2OC(=O)c1ccccc1`, the Activity in the assay with 3T3-L1 [1] is on record as greater than 50%. Consider `C=C(C)[C@@]12OC3(c4ccccc4)O[C@@H]1[C@@H]1[C@@H]4O[C@]4(CO)[C@@H](O)[C@]4(O)C(=O)C(C)=C[C@H]4[C@@]1(O3)[C@H](C)[C@H]2OC(=O)CC`, for which the Activity in the assay on 3T3-L1 [1] was greater than 50%.

For the molecule `C=C(C)[C@@]12OC3(c4ccccc4)O[C@@H]1[C@@H]1[C@H](O)[C@](Cl)(CO)[C@@H](O)[C@]4(O)C(=O)C(C)=C[C@H]4[C@@]1(O3)[C@H](C)[C@H]2OC(C)=O`, the Activity in the assay with 3T3-L1 [1] is greater than 50%. Same read-out and setting: as for `C=C(C)[C@@]12OC3(/C=C/C=C/CCCCC)O[C@@H]1[C@@H]1[C@@H]4O[C@]4(CO)[C@@H](O)[C@]4(O)C(=O)C(C)=C[C@H]4[C@@]1(O3)[C@H](C)[C@H]2OC(=O)CCC`, the figure is greater than 50%; as for `C=C(C)[C@@]12OC3(/C=C/C=C/CCCCC)O[C@@H]1[C@@H]1[C@@H]4O[C@]4(COC(=O)c4ccccc4)[C@@H](O)[C@]4(O)C(=O)C(C)=C[C@H]4[C@@]1(O3)[C@H](C)[C@H]2OC(C)=O`, greater than 50%; as for `C=C(C)[C@@]12OC3(c4ccccc4)O[C@@H]1[C@@H]1[C@@H]4O[C@]4(COC(=O)c4ccccc4)[C@@H](O)[C@]4(O)C(=O)C(C)=C[C@H]4[C@@]1(O3)[C@H](C)[C@H]2OC(C)=O`, greater than 50%. On to `C=C(C)[C@@]12OC3(/C=C/C=C/CCCCC)O[C@@H]1[C@@H]1[C@@H]4O[C@]4(CO)[C@@H](O)[C@]4(O)C(=O)C(C)=C[C@H]4[C@@]1(O3)[C@H](C)[C@H]2OC(C)=O`, for which the Activity with 3T3-L1 [1] was greater than 50%. In the case of `C=C(C)[C@@]12OC3(c4ccccc4)O[C@@H]1[C@@H]1[C@H](O)[C@](Cl)(COC(=O)c4ccccc4)[C@@H](OC(=O)CCCCCNC(=O)CCCC[C@@H]4SC[C@@H]5NC(=O)N[C@@H]54)[C@]4(O)C(=O)C(C)=C[C@H]4[C@@]1(O3)[C@H](C)[C@H]2OC(C)=O`, in the assay on 3T3-L1 [2], the IC50 is 1050 nM. The outcome in assay [3] was Active.

Consider `C=C(C)[C@@]12OC3(c4ccccc4)O[C@@H]1[C@@H]1[C@@H]4O[C@]4(COC(C)=O)[C@@H](O)[C@]4(O)C(=O)C(C)=C[C@H]4[C@@]1(O3)[C@H](C)[C@H]2OC(=O)c1ccccc1`, for which the Activity with 3T3-L1 [1] was greater than 50%.

Consider `C=C(C)[C@@]12OC3(c4ccccc4)O[C@@H]1[C@@H]1[C@@H](Cl)[C@@](O)(COC(=O)c4ccccc4)[C@@H](O)[C@]4(O)C(=O)C(C)=C[C@H]4[C@@]1(O3)[C@H](C)[C@H]2OC(C)=O`, for which the Activity in the assay on 3T3-L1 [1] is given as greater than 50%. Regarding `C=C(C)[C@@]12OC3(c4ccccc4)O[C@@H]1[C@@H]1[C@@H]4O[C@]4(COC(=O)c4ccccc4)[C@@H](O)[C@]4(O)C(=O)C(C)=C[C@H]4[C@@]1(O3)[C@H](C)[C@H]2OC(=O)c1ccccc1`, in the assay with 3T3-L1 [1], the Activity was greater than 50%. Regarding `C=C(C)[C@@]12OC3(c4ccccc4)O[C@@H]1[C@@H]1[C@@H]4O[C@]4(CO)[C@@H](O)[C@]4(O)C(=O)C(C)=C[C@H]4[C@@]1(O3)[C@H](C)[C@H]2OC(=O)CCC`, in the assay on 3T3-L1 [1], the Activity is recorded as greater than 50%.

As for `C=C(C)[C@@]12OC3(/C=C/C=C/CCCCC)O[C@@H]1[C@@H]1[C@@H]4O[C@]4(COC(C)=O)[C@@H](O)[C@]4(O)C(=O)C(C)=C[C@H]4[C@@]1(O3)[C@H](C)[C@H]2OC(C)=O`, the Activity in the assay on 3T3-L1 [1] is on record as greater than 50%. Regarding `C=C(C)[C@@]12OC3(c4ccccc4)O[C@@H]1[C@@H]1[C@@H]4O[C@]4(CO)[C@@H](O)[C@]4(O)C(=O)C(C)=C[C@H]4[C@@]1(O3)[C@H](C)[C@H]2OC(C)=O`, the Activity in the assay with 3T3-L1 [1] was greater than 50%.
